In ChEMBL document CHEMBL5506003, “Design and biological evaluation of dual tubulin/HDAC inhibitors based on millepachine for treatment of prostate cancer” (Eur J Med Chem, 2024) one finds IC50 data, which are given here for 22 molecules.

In one experiment the test system is MDA-MB-231. Description: Cytotoxicity against human MDA-MB-231 cells incubated for 72 hrs by MTT assay. It is filed as functional, cell-based. The settings on record: MDA-MB-231, 72 h.
Another experiment deals with A549. Description: Cytotoxicity against human A549 cells incubated for 72 hrs by MTT assay. The settings on record: A549, 72 h. Background: Formazan colour is commonly taken as a measure of viable cells.
In the next experiment the test system is U-251. Description: Cytotoxicity against human U-251 cells incubated for 72 hrs by MTT assay. The settings on record: U-251, 72 h.
For a further experiment, the system named is MCF7. Kind of experiment: Cytotoxicity against human MCF7 cells incubated for 72 hrs by MTT assay. The settings on record: MCF7, 72 h.
The next experiment has as its system PC-3. Description: Cytotoxicity against human PC-3 cells incubated for 72 hrs by MTT assay. The settings on record: PC-3, 72 h.

pIC50: −log10 of the molar value. A value given as a limit tells only on which side of the number the result lay.

On to `COc1ccc(/C=C/C(=O)c2ccc(OC)c3c2OC(C)(C)C=C3)cc1NCCCCCCC(=O)Nc1ccccc1N`, for which the negative-log IC50 (pIC50) in the experiment with MDA-MB-231 was below 5.00; with A549 it was below 5.00; with U-251, below 5.00; with MCF7, below 5.00; with PC-3, 5.18.

Take `COc1ccc(/C=C/C(=O)c2ccc(Br)c3c2OC(C)(C)C=C3)cc1NCC(=O)Nc1ccccc1N`: the negative-log IC50 (pIC50) is 5.39 in the experiment with MDA-MB-231; below 5.00 with A549; 5.44 with U-251; 5.39 in the experiment with MCF7; 5.91 in the experiment on PC-3.

For the molecule `COc1ccc(/C=C/C(=O)c2ccc(OC)c3c2OC(C)(C)C=C3)cc1` [MILLEPACHINE], the pIC50 in the experiment with MDA-MB-231 was 5.61; with A549, below 5.00; in the experiment with U-251, 5.43; in the experiment on MCF7, 5.36; with PC-3, 5.95.

`COc1ccc(/C=C/C(=O)c2ccc(OC)c3c2OC(C)(C)C=C3)cc1OCCCCCC(=O)Nc1ccccc1N`: the pIC50 in the experiment on MDA-MB-231 is below 5.00; in the experiment on A549 it was below 5.00; with U-251, below 5.00; with MCF7, below 5.00; with PC-3 it was 5.23.

In the case of `COc1ccc(/C=C/C(=O)c2ccc(OC)c3c2OC(C)(C)C=C3)cc1OCCCC(=O)Nc1ccccc1N`, the negative-log IC50 (pIC50) in the experiment with MDA-MB-231 was below 5.00; in the experiment with A549, below 5.00; with U-251 it was 5.12; in the experiment with MCF7 it was 5.02; with PC-3 it was below 5.00.

As for `COc1ccc(/C=C/C(=O)c2ccc(OC)c3c2OC(C)(C)C=C3)cc1OCC(=O)NO`, the negative-log IC50 (pIC50) with MDA-MB-231 was 5.77; with A549 it was 5.53; in the experiment on U-251, 6.32; with MCF7, 6.23; with PC-3 it was 6.64.

In the case of `COc1ccc(/C=C/C(=O)c2ccc(OC)c3c2OC(C)(C)C=C3)cc1NCCCCCCC(=O)NO`, the pIC50 with MDA-MB-231 was below 5.00; in the experiment on A549 it was below 5.00; with U-251 it was below 5.00; in the experiment on MCF7 it was below 5.00; in the experiment on PC-3, 5.14.

As for `COc1ccc(/C=C/C(=O)c2ccc(OC)c3c2OC(C)(C)C=C3)cc1NCCCCCC(=O)Nc1ccccc1N`, the pIC50 in the experiment with MDA-MB-231 was below 5.00; in the experiment on A549, below 5.00; with U-251, below 5.00; in the experiment with MCF7, below 5.00; with PC-3, 5.29.

Consider `COc1ccc(/C=C/C(=O)c2ccc(Cl)c3c2OC(C)(C)C=C3)cc1NCC(=O)NO`, for which the pIC50 was 6.30 in the experiment with MDA-MB-231; 5.78 in the experiment on A549; 6.60 with U-251; 6.32 in the experiment with MCF7; 7.28 in the experiment on PC-3.

Take `COc1ccc(/C=C/C(=O)c2ccc(OC)c3c2OC(C)(C)C=C3)cc1OCCCCC(=O)Nc1ccccc1N`: the pIC50 in the experiment on MDA-MB-231 was below 5.00; in the experiment with A549 it was below 5.00; in the experiment on U-251, below 5.00; in the experiment on MCF7 it was 5.07; in the experiment on PC-3, 5.19.

As for `COc1ccc(/C=C/C(=O)c2ccc(OC)c3c2OC(C)(C)C=C3)cc1OCCCC(=O)NO`, the negative logarithm of the IC50 (pIC50) with MDA-MB-231 is 5.06; in the experiment with A549 it was 5.26; with U-251, 5.43; with MCF7 it was 5.25; in the experiment with PC-3, 5.21.

Take `COc1ccc(/C=C/C(=O)c2ccc(OC)c3c2OC(C)(C)C=C3)cc1OCC(=O)Nc1ccccc1N`: the pIC50 in the experiment with MDA-MB-231 is below 5.00; with A549 it was below 5.00; in the experiment on U-251, 5.12; in the experiment on MCF7, 5.06; in the experiment with PC-3, below 5.00.

On to `COc1ccc(/C=C/C(=O)c2ccc(OC)c3c2OC(C)(C)C=C3)cc1NCCCCCC(=O)NO`, for which the pIC50 with MDA-MB-231, with A549, with U-251, in the experiment with MCF7 and with PC-3 was below 5.00 in each case.

For `COc1ccc(/C=C/C(=O)c2ccc(OC)c3c2OC(C)(C)C=C3)cc1OCCCCCC(=O)NO`, the pIC50 is below 5.00 in the experiment with MDA-MB-231; 5.22 in the experiment with A549; below 5.00 in the experiment with U-251; 5.19 with MCF7; 5.24 in the experiment on PC-3.

As to `COc1ccc(/C=C/C(=O)c2ccc(OC)c3c2OC(C)(C)C=C3)cc1OCCCCCCC(=O)Nc1ccccc1N`, the pIC50 in the experiment on MDA-MB-231 is 5.41; with A549 it was below 5.00; with U-251, below 5.00; in the experiment with MCF7, below 5.00; in the experiment on PC-3, below 5.00.

Consider `COc1ccc(/C=C/C(=O)c2ccc(Cl)c3c2OC(C)(C)C=C3)cc1OCC(=O)Nc1ccccc1N`, for which the negative-log IC50 (pIC50) with MDA-MB-231 is 5.46; in the experiment with A549, 5.11; in the experiment on U-251, 5.03; with MCF7 it was 5.04; in the experiment with PC-3 it was 5.33.

Take `COc1ccc(/C=C/C(=O)c2ccc(OC)c3c2OC(C)(C)C=C3)cc1NCC(=O)Nc1ccccc1N`: the pIC50 in the experiment on MDA-MB-231 is 5.30; with A549, 5.01; in the experiment on U-251 it was 5.38; with MCF7, 5.36; in the experiment with PC-3, 5.51.

As for `COc1ccc(/C=C/C(=O)c2ccc(Br)c3c2OC(C)(C)C=C3)cc1OCC(=O)Nc1ccccc1N`, the pIC50 in the experiment on MDA-MB-231 was 5.32; with A549 it was 5.09; in the experiment on U-251, 5.18; with MCF7, 5.21; in the experiment on PC-3 it was 5.43.

Take `COc1ccc(/C=C/C(=O)c2ccc(Cl)c3c2OC(C)(C)C=C3)cc1OCC(=O)NO`: the pIC50 in the experiment with MDA-MB-231 is 6.30; in the experiment on A549, 5.59; in the experiment with U-251, 5.75; with MCF7, 5.84; in the experiment on PC-3, 6.66.

Regarding `COc1ccc(/C=C/C(=O)c2ccc(Cl)c3c2OC(C)(C)C=C3)cc1NCC(=O)Nc1ccccc1N`, the negative logarithm of the IC50 (pIC50) was 5.52 in the experiment with MDA-MB-231; below 5.00 in the experiment on A549; 5.33 in the experiment on U-251; 5.32 in the experiment with MCF7; 5.58 with PC-3.

Consider `COc1ccc(/C=C/C(=O)c2ccc(OC)c3c2OC(C)(C)C=C3)cc1OCCCCCCC(=O)NO`, for which the pIC50 is below 5.00 in the experiment with MDA-MB-231; below 5.00 in the experiment on A549; below 5.00 in the experiment with U-251; 5.00 with MCF7; below 5.00 in the experiment on PC-3.

Consider `COc1ccc(/C=C/C(=O)c2ccc(OC)c3c2OC(C)(C)C=C3)cc1OCCCCC(=O)NO`, for which the pIC50 is 5.33 in the experiment on MDA-MB-231; 5.15 in the experiment with A549; below 5.00 in the experiment on U-251; below 5.00 with MCF7; 5.32 with PC-3.

What is called pIC50 is −log10 of the IC50, conventionally taken in molar units.
